Reference: patent publication US20250242006A1, “DRY POWDER COMPOSITIONS COMPRISING EUKARYOTIC CELLS AND METHOD OF THEIR MANUFACTURE AND USE” (BOARD OF REGENTS, THE UNIVERSITY OF TEXAS SYSTEM, priority 2021, published 2025)

Tested on: J774A.1 cells
Assay: Viability of J774A.1 cells after thin-film freeze-drying (TFFD), trypan blue stain
Type: cell-based, murine
From the text: Excipients that were used for their ability to preserve the cells includes disaccharide such as Trehalose, antioxidants such as EGCG, D-α-tocopherol succinate, D-α-tocopherol PEG1000 succinate, Trolox, glutathione, and L-ascorbic acid, polymers such as PVP-40, P-188, dextrin, dextran, and HSA. An equivalent volume of the above-mentioned excipients in complete DMEM or Dulbecco phosphate buffered saline (DPBS) was mixed with cells at final cell concentration of 2.5×10^6 cells/ml for J774A.1 macrophages or 1.0×10^6 cells/mL for THP-1 cells. Cells mixed with trehalose and antioxidant were incubated at 37° C. in 5% CO2 incubator. Polymers and proteins were added to the cells without incubation. The TFF technique was applied to the cell suspension by dropping them as droplets of 3.6-3.8 mm in diameter, 200 μl in 7-8 drops, from a distance of 1-10 cm onto the surface of a cryogenically cooled glass (˜−80° C. achieved using dry ice), which were then stored in −80° C. for 1 h until the lyophilization process. The lyophilizer shelf temperature was set at −35° C., with vacuum pressure at 100 mTorr for 12 h. To measure the viability of the cells after TFFD, the powders were resuspended in DMEM media or DPBS, and cell viability was assessed after trypan blue stain (0.4%, Gibco, Grand Island, NY) using a TC20 Bio-Rad automatic cell counter (Hercules, CA).

Row | Structure (SMILES) | effect on J774A.1 cell viability after TFFD (antioxidant at 800 μg/ml) | effect on J774A.1 cell viability after TFFD (antioxidant at 500 µM)
1 | Cc1c(C)c2c(c(C)c1OC(=O)CCC(=O)O)CC[C@@](C)(CCC[C@H](C)CCC[C@H](C)CCCC(C)C)O2 [D-α-tocopherol succinate] | helped improve the viability | 
2 | Cc1c(C)c2c(c(C)c1O)CCC(C)(C(=O)O)O2 (centres unmarked) [Trolox] |  | helped improve the viability
